# Measurements published in ChEMBL document CHEMBL1201862, “PubChem BioAssay data set” (2004).
# Activity calls are given as the source filed them.
# What was measured:
# [1] = target: Luciferin 4-monooxygenase (Photinus pyralis, UniProt P08659); experiment: inhibition of purified Photinus pyralis luciferase – biochemical, luminescence, dose response (AID 1891)
# [2] = Luminescence Cell-Based Dose Confirmation HTS to Identify Inhibitors of Platelet Dense Granule Release. [Related pubchem assays: 1663 (Primary HTS), 1678 (Summary of Project)]; assay type: functional
# [3] = target: T1, Rac GTPase-activating protein 1 (Homo sapiens, UniProt Q9H0H5); experiment: blockers of MgcRacGAP-driven Rac1 GTP hydrolysis – biochemical, ADP Hunter fluorescence, primary and confirmatory, confirmation (AID 624330); assay type: functional
# T1 sequence (Q9H0H5 whole entry): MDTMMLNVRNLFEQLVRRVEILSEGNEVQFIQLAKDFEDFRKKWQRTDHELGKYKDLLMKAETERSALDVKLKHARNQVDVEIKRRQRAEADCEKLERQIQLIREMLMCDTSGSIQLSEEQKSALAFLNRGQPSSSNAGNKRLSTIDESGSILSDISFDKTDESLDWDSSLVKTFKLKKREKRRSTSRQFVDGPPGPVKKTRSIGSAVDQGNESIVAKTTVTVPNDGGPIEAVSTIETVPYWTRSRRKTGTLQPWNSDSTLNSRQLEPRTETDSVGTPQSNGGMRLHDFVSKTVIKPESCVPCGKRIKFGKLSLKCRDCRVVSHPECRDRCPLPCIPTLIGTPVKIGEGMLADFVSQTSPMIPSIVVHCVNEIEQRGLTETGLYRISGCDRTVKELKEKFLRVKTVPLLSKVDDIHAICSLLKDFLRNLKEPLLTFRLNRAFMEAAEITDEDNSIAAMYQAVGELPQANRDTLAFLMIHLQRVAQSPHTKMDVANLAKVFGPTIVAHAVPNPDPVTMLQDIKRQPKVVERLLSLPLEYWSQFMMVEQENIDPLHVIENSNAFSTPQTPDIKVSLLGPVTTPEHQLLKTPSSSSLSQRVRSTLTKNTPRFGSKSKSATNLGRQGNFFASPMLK
# Cytochrome P450 2C9 = Cytochrome P450 2C9 (Homo sapiens, UniProt P11712)
# [4] = Luminescence Cell-Based Dose Retest to Confirm Inhibitors of Cancer Stem Cells. [Related pubchem assays (depositor defined):AID2717, AID2721]; assay type: functional; conditions: Homo sapiens
# [5] = target: T2, Heat shock factor protein 1 (Mus musculus, UniProt P38532); experiment: enhancement of HSF1-driven luciferase signal – cell-based, NIH3T3, luminescence, dose retest, confirmation (AID 435004); assay type: functional;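 further: stress induced by proteasome inhibitor MG132 added 30 min after compound; luciferase reporter driven by HSF1 response element in NIH3T3 cells; actives raise luminescence as potentiators of the MG132 stress response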
# T2 sequence (P38532 whole entry): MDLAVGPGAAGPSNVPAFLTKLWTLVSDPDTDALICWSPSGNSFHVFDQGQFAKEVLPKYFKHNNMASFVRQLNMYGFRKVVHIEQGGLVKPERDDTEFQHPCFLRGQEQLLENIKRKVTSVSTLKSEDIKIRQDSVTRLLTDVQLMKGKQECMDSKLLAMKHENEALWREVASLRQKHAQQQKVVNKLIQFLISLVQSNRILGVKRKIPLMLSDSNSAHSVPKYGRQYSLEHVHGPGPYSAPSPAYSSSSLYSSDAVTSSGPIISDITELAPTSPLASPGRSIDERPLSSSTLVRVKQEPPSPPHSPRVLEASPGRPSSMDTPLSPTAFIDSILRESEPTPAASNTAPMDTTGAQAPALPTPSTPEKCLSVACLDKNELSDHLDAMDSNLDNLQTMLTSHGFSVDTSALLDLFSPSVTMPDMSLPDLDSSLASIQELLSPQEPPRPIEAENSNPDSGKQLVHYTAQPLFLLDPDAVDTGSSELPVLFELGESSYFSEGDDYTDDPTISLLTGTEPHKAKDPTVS
# [6] = Trypanosoma cruzi growth suppression in host cells – NIH3T3 host cells, beta-gal luminescence, confirmation (AID 2044); assay type: functional, cell-based;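 further: intracellular parasites grown in NIH/3T3 mouse fibroblasts as host cells; luminescent beta-galactosidase reporter signal from transgenic T. cruzi replicating inside host cells; inhibitors lower the luminescence signal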
# [7] = NIH3T3 cell viability loss – ATP luminescence, mouse fibroblasts, counter-screen, dose response (AID 2010); assay type: functional, cell-based;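 further: cells exposed to compound for about 90 hours before reading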
# Cytochrome P450 2C19 = Cytochrome P450 2C19 (Homo sapiens, UniProt P33261); experiment: Cytochrome panel assay with activity outcomes. Panel member name: p450-cyp2c19 Compounds with AC50 equal or less than 10 uM are considered active; assay type: functional; conditions: read-out: AC50
# Cytochrome P450 3A4 = Cytochrome P450 3A4 (Homo sapiens, UniProt P08684);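 further: CYP3A4 tested as one member of a cytochrome P450 panel screen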
# INS1 = experiment: INS-1E survival protection against cytokine death – cell-based, luminescence, retest, dose response (AID 449756); assay type: functional; conditions: Rattus norvegicus;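 further: cell death triggered by IL-1 beta plus TNF-alpha plus IFN-gamma mixture; protective hits raise ATP signal compared with cytokine alone wells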
# [8] = target: T2, Heat shock factor protein 1; experiment: decrease of HSF1-responsive luciferase luminescence – cell-based, NIH3T3, dose retest, confirmation (AID 2382); assay type: functional;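 further: NIH3T3 fibroblasts with HSF1-driven luciferase reporter stressed by proteasome inhibitor MG132; luminescence from HSF1-driven luciferase expression after 8 hours of MG132 stress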
# [9] = system: Streptococcus sp. 'group A'; experiment: Streptococcus pyogenes SK(-)GAS viability under kanamycin – luminescence, BacTiterGlo, confirmation, counter-screen for streptokinase expression inhibitor project, dose response (AID 1900); assay type: functional, organism-based
# Streptokinase A = target: T3, Streptokinase A (Streptococcus pyogenes serotype M1, UniProt P10520); experiment: viability-normalized secreted streptokinase activity reduction – plasminogen activation absorbance, OD405, dose response (AID 1914); assay type: functional, Streptococcus pyogenes M1 GAS;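 further: secreted streptokinase activity via plasminogen activation per viability signal from cell pellet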
# T3 sequence (P10520 whole entry): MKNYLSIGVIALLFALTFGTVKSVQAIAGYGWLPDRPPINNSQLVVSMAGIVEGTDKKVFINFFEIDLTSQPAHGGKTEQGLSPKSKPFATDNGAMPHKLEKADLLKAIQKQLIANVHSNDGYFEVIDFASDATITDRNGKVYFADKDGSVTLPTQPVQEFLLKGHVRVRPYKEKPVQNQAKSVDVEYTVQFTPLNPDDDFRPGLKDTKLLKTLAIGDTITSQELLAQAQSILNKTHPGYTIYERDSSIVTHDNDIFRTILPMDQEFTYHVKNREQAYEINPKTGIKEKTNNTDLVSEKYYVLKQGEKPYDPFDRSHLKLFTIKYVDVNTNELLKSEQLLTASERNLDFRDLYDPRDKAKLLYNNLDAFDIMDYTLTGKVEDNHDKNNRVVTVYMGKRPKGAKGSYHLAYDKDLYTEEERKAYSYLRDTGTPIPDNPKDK
# Streptococcus = experiment: GAS UMAA2166 growth inhibition – luminescence, BacTiterGlo, counter-screen for streptokinase expression inhibitor project, dose response (AID 1915); assay type: functional, organism-based;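 further: potency for reduction of bacterial viability or growth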
# Chain of Luciferin 4-monooxygenase (P08659 whole entry): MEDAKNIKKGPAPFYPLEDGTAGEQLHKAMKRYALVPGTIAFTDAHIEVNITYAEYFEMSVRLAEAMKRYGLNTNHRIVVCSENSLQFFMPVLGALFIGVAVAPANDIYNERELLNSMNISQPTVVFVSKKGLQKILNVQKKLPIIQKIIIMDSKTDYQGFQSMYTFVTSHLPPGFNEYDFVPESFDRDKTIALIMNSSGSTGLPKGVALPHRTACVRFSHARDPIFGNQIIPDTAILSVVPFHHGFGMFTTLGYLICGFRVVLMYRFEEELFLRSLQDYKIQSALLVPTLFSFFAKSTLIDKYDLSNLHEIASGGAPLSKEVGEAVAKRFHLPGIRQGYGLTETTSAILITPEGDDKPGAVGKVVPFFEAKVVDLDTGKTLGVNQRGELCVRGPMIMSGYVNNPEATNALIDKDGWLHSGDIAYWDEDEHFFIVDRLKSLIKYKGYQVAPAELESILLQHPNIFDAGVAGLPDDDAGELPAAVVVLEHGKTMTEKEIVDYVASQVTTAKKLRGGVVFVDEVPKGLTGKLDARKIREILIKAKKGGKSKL
# Chain of Cytochrome P450 2C9 (P11712 whole entry): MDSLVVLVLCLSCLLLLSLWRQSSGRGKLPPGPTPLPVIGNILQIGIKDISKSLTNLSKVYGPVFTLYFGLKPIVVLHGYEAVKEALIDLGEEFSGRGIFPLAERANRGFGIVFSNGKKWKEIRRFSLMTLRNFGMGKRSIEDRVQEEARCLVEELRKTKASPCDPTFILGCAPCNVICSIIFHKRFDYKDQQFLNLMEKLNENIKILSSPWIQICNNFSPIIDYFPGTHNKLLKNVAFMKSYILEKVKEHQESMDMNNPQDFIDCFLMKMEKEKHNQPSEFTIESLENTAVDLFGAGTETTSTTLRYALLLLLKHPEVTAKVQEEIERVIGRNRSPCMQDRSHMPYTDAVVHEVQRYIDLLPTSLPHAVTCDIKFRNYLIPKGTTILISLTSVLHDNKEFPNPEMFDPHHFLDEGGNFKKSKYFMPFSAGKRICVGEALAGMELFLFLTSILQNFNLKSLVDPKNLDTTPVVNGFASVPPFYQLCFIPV
# Chain of Cytochrome P450 2C19 (P33261 whole entry): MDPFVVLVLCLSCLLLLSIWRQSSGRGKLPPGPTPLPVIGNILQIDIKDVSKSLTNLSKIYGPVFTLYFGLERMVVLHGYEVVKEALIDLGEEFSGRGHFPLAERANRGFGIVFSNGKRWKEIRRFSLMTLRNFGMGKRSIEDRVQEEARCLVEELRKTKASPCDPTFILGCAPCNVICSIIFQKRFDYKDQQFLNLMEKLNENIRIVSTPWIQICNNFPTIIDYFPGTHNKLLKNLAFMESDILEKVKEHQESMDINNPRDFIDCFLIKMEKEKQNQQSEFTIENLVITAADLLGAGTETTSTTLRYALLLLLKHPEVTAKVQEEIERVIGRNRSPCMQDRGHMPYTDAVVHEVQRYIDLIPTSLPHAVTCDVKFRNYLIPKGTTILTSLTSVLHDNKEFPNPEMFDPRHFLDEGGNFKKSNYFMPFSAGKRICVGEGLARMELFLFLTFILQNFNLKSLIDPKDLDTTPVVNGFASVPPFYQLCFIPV
# Chain of Cytochrome P450 3A4 (P08684 whole entry): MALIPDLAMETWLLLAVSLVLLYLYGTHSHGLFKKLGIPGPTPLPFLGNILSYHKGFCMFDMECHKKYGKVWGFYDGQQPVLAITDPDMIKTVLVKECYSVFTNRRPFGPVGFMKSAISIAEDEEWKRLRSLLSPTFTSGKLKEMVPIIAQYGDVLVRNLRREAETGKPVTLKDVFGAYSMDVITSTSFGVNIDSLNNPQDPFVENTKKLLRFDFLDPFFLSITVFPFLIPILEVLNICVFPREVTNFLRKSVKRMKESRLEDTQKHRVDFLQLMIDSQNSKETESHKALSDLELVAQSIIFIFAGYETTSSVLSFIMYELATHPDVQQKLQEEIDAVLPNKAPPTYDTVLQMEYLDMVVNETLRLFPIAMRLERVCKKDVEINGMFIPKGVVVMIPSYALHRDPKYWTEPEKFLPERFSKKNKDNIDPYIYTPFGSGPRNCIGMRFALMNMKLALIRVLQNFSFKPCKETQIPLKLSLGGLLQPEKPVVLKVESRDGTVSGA
smiles,measurement,setting,value
COc1ccc(CN2CCCC(C(=O)c3cccc(OC(C)C)c3)C2)cc1Cn1cccn1 (configuration not stated),EC50,[1],> 112 µM (not active)
same,EC50,[2],> 112 µM (not active)
COCCNC(=O)COc1ccc(Nc2ccccc2)cc1,IC50,[3],47.6 µM (active)
O=C(Cc1ccccc1)NC(=S)Nc1cc(C(F)(F)F)ccc1Cl,AC50,Cytochrome P450 2C9,3.55 µM (inconclusive)
CN(C(S)=Nc1ccc(SC(F)F)cc1)C(c1ccccc1)c1ccccc1,AC50,[4],4.57 µM (active)
O=C1CC(N2C(=O)/C(=C/C=C/c3ccccc3)SC2=S)C(=O)N1c1ccccc1 (configuration not stated),EC50,[5],> 260 µM (inactive)
CCCCn1c(N)c(N(Cc2ccccc2OC)C(=O)C(C)Oc2ccc(Cl)cc2)c(=O)[nH]c1=O (configuration not stated),EC50,[1],> 112 µM (not active)
same,EC50,[2],> 112 µM (not active)
Cc1ccccc1-c1ccc(CN2CCN(C)C(CCO)C2)cc1 (configuration not stated),EC50,[6],0.828 µM (active)
same,EC50,[7],4.69 µM (active)
same,AC50,[4],2.9 µM (active)
CC(C)C(C(=O)NCC1CCCO1)N(Cc1ccco1)C(=O)CNS(=O)(=O)c1ccc(F)cc1 (configuration not stated),AC50,Cytochrome P450 2C19,11.2 µM (inconclusive)
same,AC50,Cytochrome P450 2C9,39.8 µM (inconclusive)
O=[N+]([O-])c1ccc(N2CCC(=NOCc3ccc(Cl)cc3)CC2)cc1,AC50,Cytochrome P450 2C19,4.47 µM (inconclusive)
same,AC50,Cytochrome P450 3A4,35.5 µM (inconclusive)
same,AC50,Cytochrome P450 2C9,14.1 µM (inconclusive)
Cc1nn(CC(=O)Nc2cccnc2)c(C)c1[N+](=O)[O-],EC50,[1],> 112 µM (not active)
same,EC50,[2],7.26 µM (active)
N=C(NOC(=O)c1ccc(Cl)cc1)c1[nH]ncc1Br,EC50,[1],0.882 µM (active)
same,EC50,[2],4.36 µM (active)
C=C(Br)Cn1c(CCCC)nc2ccccc21,AC50,[4],0.514 µM (active)
O=C(O)/C=C/c1cccc(NC(=O)c2ccccc2)c1,EC50,[1],4.49 µM (active)
same,EC50,[2],17.4 µM (active)
O=S(=O)(NCc1ccccn1)c1ccc2ccccc2c1,EC50,[5],> 260 µM (inactive)
Cc1ccc(-c2nn(-c3ccccc3)cc2/C=C/C(=O)Nc2cccc(S(N)(=O)=O)c2)cc1,AC50,INS1,3.29 µM (active)
COc1cccc(NC=C2C(=O)CC(C)(C)CC2=O)c1,EC50,[5],8.09 µM (active)
Cc1cccc(N2C(S)=C(C#N)C(=O)NC2c2cccs2)c1 (configuration not stated),IC50,[3],110 µM (active)
CCOC(=O)Nc1ccc2nc(Sc3ccc(Cl)cc3)sc2c1,AC50,[4],1.53 µM (active)
CS(=O)(=O)N1CCC2(CCCN(C(=O)Nc3cccc(F)c3)C2)CC1,AC50,Cytochrome P450 3A4,20 µM (inconclusive)
Clc1ccccc1-c1cncnc1NCc1cccs1,AC50,Cytochrome P450 2C9,0.794 µM (inconclusive)
CC1CCN(CC(=O)Nc2ccc(S(=O)(=O)NC3CC3)cc2)CC1,EC50,[8],> 195 µM (not active)
same,IC50,[3],179 µM (active)
O=C(CC1(O)C(=O)N(Cc2ccccc2)c2ccccc21)c1ccncc1 (configuration not stated),EC50,[1],> 112 µM (not active)
same,EC50,[2],> 112 µM (not active)
Fc1ccccc1-c1nc2nc3ccccc3nc2n1CC1CCCO1 (configuration not stated),EC50,[5],> 260 µM (inactive)
CCOc1ccccc1-c1noc(CCCC(=O)NC2CCCCC2)n1,EC50,[5],> 260 µM (inactive)
CC(=O)Nc1ccc(Nc2ccccc2)cc1,IC50,[3],75.6 µM (active)
O=C(COc1ccc2ccccc2c1)NNC(=O)Cc1cccc2ccccc12,AC50,Cytochrome P450 2C19,0.398 µM (inconclusive)
same,AC50,Cytochrome P450 3A4,14.1 µM (inconclusive)
Cc1ccccc1CNc1ccc(C(CC(N)=O)NC(=O)c2ccccc2)cc1[N+](=O)[O-] (configuration not stated),AC50,[4],3.49 µM (active)
O=S1(=O)C=C(N2CCOCC2)c2ccccc21,AC50,Cytochrome P450 2C9,39.8 µM (inconclusive)
CC1(c2cccs2)CC(c2cccs2)=C(C#N)C(=O)N1 (configuration not stated),EC50,[5],> 260 µM (inactive)
O=C(Cc1ccc(Cl)c(Cl)c1)Nc1ccc(SC(F)F)cc1,AC50,[4],4.04 µM (active)
CCO/C(O)=C1/C(C)=Nc2ncnn2C1c1cccnc1 (configuration not stated),AC50,Cytochrome P450 2C19,22.4 µM (inconclusive)
same,AC50,Cytochrome P450 2C9,25.1 µM (inconclusive)
CC1(C)CC(=O)C(C(C#Cc2ccccc2)C2=C(O)CC(C)(C)CC2=O)=C(O)C1,AC50,Cytochrome P450 3A4,31.6 µM (inconclusive)
COc1ccc(Cl)cc1N1C(=O)/C(=C\c2sccc2C)N=C1SCC(=O)NC1CC1,EC50,[5],> 260 µM (inactive)
COCCn1c(=O)c(-c2cn(C)c3ccccc23)nc2cnc(OCc3ccccc3)nc21,AC50,Cytochrome P450 3A4,7.94 µM (inconclusive)
O=C(Cc1cccs1)NCc1ccccc1Br,EC50,[5],> 260 µM (inactive)
CN(C)CCOC(=O)CCc1ccccc1,EC50,[1],> 112 µM (not active)
same,EC50,[2],> 112 µM (not active)
N#Cc1ccc(CN2CCC3(CC2)CCN(C(=O)c2cnccn2)CC3)cc1,AC50,Cytochrome P450 2C9,39.8 µM (inconclusive)
Cc1cc(C)c(-c2noc(C(=O)OC(C)(C)C)c2C(=O)OC(C)(C)C)c(C)c1,EC50,[9],10.4 µM (active)
same,EC50,Streptokinase A,11.5 µM (active)
same,EC50,Streptococcus,> 150 µM (not active)
same,AC50,Cytochrome P450 2C19,11.2 µM (inconclusive)
same,AC50,Cytochrome P450 2C9,12.6 µM (inconclusive)
Cc1cc(NC(=S)NC(=O)CC(C)C)ccc1Br,AC50,Cytochrome P450 3A4,20 µM (inconclusive)
same,AC50,Cytochrome P450 2C9,0.0447 µM (inconclusive)
COC(=O)Nc1ccc(S(=O)(=O)Nc2cccc3ccccc23)cc1,EC50,[5],> 260 µM (inactive)
COc1ccc(N2CCN(C(c3cccs3)C(C)NS(=O)(=O)c3ccccc3)CC2)cc1 (configuration not stated),EC50,[5],> 260 µM (inactive)
CN1CCN(C(=O)c2ccc(Cn3cc(Cl)cn3)o2)CC1,EC50,[5],> 260 µM (inactive)
CC(C)C(C)N(Cc1ccc(C(=O)O)cc1)C(=O)c1ccc2ccccc2n1 (configuration not stated),EC50,[5],> 260 µM (inactive)
OC(CNCC1COc2ccccc2O1)COCc1cccs1 (configuration not stated),IC50,[3],76.9 µM (active)
Cc1cc(C(F)(F)F)nn1CC(=O)Nc1cccnc1,AC50,Cytochrome P450 2C19,22.4 µM (inconclusive)
same,AC50,Cytochrome P450 3A4,25.1 µM (inconclusive)
same,AC50,Cytochrome P450 2C9,39.8 µM (inconclusive)
CC(OC(=O)CCNC1=NS(=O)(=O)c2ccccc21)C(=O)Nc1ccc(N(C)C)cc1 (configuration not stated),IC50,[3],54.7 µM (active)
Cc1ccsc1/C=N/Nc1nc2ccccc2[nH]1,IC50,[3],71.6 µM (active)
O=[N+]([O-])C(=C\Nc1ccccc1O)/C=N/c1ccccc1O,IC50,[3],58.9 µM (active)
C/C(=N\Nc1nc(C)cc(-c2ccccc2)n1)c1cccc(N)c1,AC50,INS1,2.76 µM (active)
O=C(N/N=C/c1ccc(OC2CSC2)cc1)c1ccccc1,AC50,[4],2.49 µM (active)
CC1(C)C(=O)N=C2C1=C(O)C(=O)c1ccccc12,AC50,Cytochrome P450 2C19,31.6 µM (inconclusive)
same,AC50,Cytochrome P450 3A4,31.6 µM (inconclusive)
same,AC50,Cytochrome P450 2C9,25.1 µM (inconclusive)
CCCCC[C@H](O)/C=C/[C@H]1[C@H](O)CC(=O)[C@@H]1CCCCCCC(=O)O [ALPROSTADIL],EC50,[1],> 112 µM (not active)
same,EC50,[2],< 0.088 µM (active)
